The source of these data is patent US4096252A, “4-Trifluoromethylbenzoic acid derivatives as thromboembolic agents” (priority 1976, dated 1978).

“And” between values parts separate entries of the source, which are not always exact repeats. Identical values can stand only once. Like-named read-outs stand apart in the source and are kept apart here.

Series [1] deals with rat platelet aggregation. As to the kind of experiment: In vitro inhibition of rat platelet aggregation (Born and Cross method). The series is classed as cell-based. The following applies: for inhibition at 4150 µM: plasma concentration 4.15×10^-3 molar; for inhibition at 8300 µM: plasma concentration 8.30×10^-3 molar. Here is the method: Platelet aggregation was measured according to the method of Born and Cross (8) by using rat and human plasma.

The test system of series [2] is human platelet aggregation. As to the kind of experiment: Human platelet aggregation induced by collagen after oral administration to humans. The series is classed as in vivo. The following applies: collagen 33.3 μg/m, one value per human; for delay (collagen-induced aggregation curve) / x (collagen-induced aggregation curve): increase vs control = inhibition. Here is the method: The significance of the parameters employed in Table IV (x, y and delay) is indicated; and
(§1) In the in vivo tests on humans, the two selected compounds were administered per os during six consecutive days at equimolar doses: 200 mg three times a day of 2-acetoxy-4-trifluoromethylbenzoic acid and 248 mg three times a day of 2-phosphonoxy-4-trifluoromethylbenzoic acid.
(§2) Blood was collected on the first, fourth and seventh day of the test and the platelet aggregation induced by ADP, epinephrine and collagen was determined according to the above-mentioned Born method.
(§3) EFFECT OF 2-ACETOXY-4-TRIFLUOROMETHYLBENZOIC ACID
(§4) AND 2-PHOSPHONOXY-4-TRIFLUOROMETHYLBENZOIC
ACID ON PLATELET AGGREGATION INDUCED BY
COLLAGEN AFTER ORAL ADMINISTRATION TO HUMANS*.
*An increase of delay time and x and a decrease of y with respect to
control indicate an inhibitory effect on platelet aggregation (see FIG.

For series [3], the system named is human platelet aggregation. Put plainly: In vitro inhibition of human platelet aggregation (Born and Cross method). The series is classed as cell-based. How it is done: Platelet aggregation was measured according to the method of Born and Cross (8) by using rat and human plasma. The results are summarized below in Tables I and II.
Key : PC = Plasma Concentration: PAI = Platelet Aggregation
*The percent of inhibition was calculated using the method described by
McKenzie (Proc. Soc. Exp. Biol. Med. 137: 662, 1971).

In series [4] the test system is human platelet aggregation. As to the kind of experiment: Human platelet aggregation induced by ADP and epinephrine after oral administration to humans. The series is classed as in vivo. The following applies: Tables III and IV. How it is done: as §1, §2, §3, §4
ACID ON PLATELET AGGREGATION INDUCED BY ADP AND
EPINEPHRINE AFTER ORAL ADMINISTRATION TO HUMANS*
*The figures express the concentration (μM) that produces irreversible

For series [5], the system named is blood coagulation factors and fibrinolysis. Format: in vivo, human. The conditions noted are these: oral; for Hematocrit / Platelet count / Euglobin lysis time: Von Kaulas's test / Activated kaolin test / Activated partial thromboplastin test: APTI / Howell's test / Plasma prothrombine test: Quick test / Serum prothrombin time / Bleeding time, Duke test / Clotting time / Thromboelastogram K / Thromboelastogram r: mean ± s.e.m.; for Euglobin lysis time: Von Kaulas's test: decrease vs control = drug effect; for Activated kaolin test / Activated partial thromboplastin test: APTI / Howell's test / Plasma prothrombine test: Quick test / Serum prothrombin time: decrease vs control = inhibitory effect; for Bleeding time, Duke test / Clotting time / Thromboelastogram K / Thromboelastogram r: increase vs control = inhibitory effect. How it is done: The values r and k (in parameter 15 of Table V) correspond to blood (b). Their significance appears from the Figure.
as §1, §2
The potential anticoagulant and fibrinolytic activity of the claimed compounds has therefore likewise been investigated. For this purpose, with the same blood samples used for the determination of in vivo antiaggregating action on humans, the following parameters were examined: clotting time, bleeding time (Duke test), tourniquet test, Parrot's test, plasma prothrombine test (Quick test), activated partial thromboplastin test (APTT), activated Kaolin test, Howell's test, serum prothrombin time, euglobulin lysis time, Von Kaula's test, degradation products of fibrinogen (DPF), platelet count, clot retraction, hematocrit and thromboelastogram.
EFFECT OF 2-ACETOXY-4-TRIFLUOROMETHYLBENZOIC ACID AND 2-PHOSPHONOXY-4-TRIF
ZOIC ACID ON BLOOD COAGULATION FACTORS AND FIBRINOLYSIS*.
treated with 2-acetoxy-4-trifluoromethylbenzoic acid and on 6 humans
treated with 2-phos phonoxy-4-trifluoromethylbenzoic acid. An increase of
the mean values (±s.e.m.) of parameters 1 and 2 or a decrease of
parameters 5,6,7,8,9,10 and 11 with respect to control, mean an inhibitor
effec of drugs on the blood coagulation and fibrinolysis.
**An increase of r and k values with respect to control, indicates an
inhibitory effect of the drugs on blood coagulation and also on platelet
aggregation. These figures are indicated in FIG. 2 which corresponds to a
normal thromboelastogram.

The mark [6] stands for this setting: Rattus norvegicus, Platelet, read-out: Platelet Aggregation Inhibition (PAI), ADP 4.1×10^-6 M, rat plasma.
The mark [7] stands for this setting: Rattus norvegicus, Platelet, read-out: Platelet Aggregation Inhibition (PAI), Collagen 33.3 μg/ml, rat plasma.

Take `CNC[C@H](O)c1ccc(O)c(O)c1` [epinephrine, reference compound]: in series [1] (epinephrine as aggregating agent), the “influence on rat platelets” value is “no”.
`O=C(O)c1ccc(C(F)(F)F)cc1OP(=O)(O)O` [2-phosphonoxy-4-trifluoromethylbenzoic acid]: the “y (collagen-induced aggregation curve)” value in series [2] (4th day, decrease vs control = inhibition) is 49 mm and 42 mm and 36 mm and 37 mm and 41 mm. In series [2] (4th day), the “delay (collagen-induced aggregation curve)” value was 36 xc and 24 xc and 48 xc; the “x (collagen-induced aggregation curve)” value was 14 mm and 16 mm and 17 mm and 22 mm and 18 mm. Moreover, in series [2] (7th day), the “delay (collagen-induced aggregation curve)” value was 48 xc and 24 xc and 36 xc; the “x (collagen-induced aggregation curve)” value is 13 mm and 14 mm and 15 mm and 23 mm and 12 mm. The inhibition at 6250 µM in series [3] (read-out: Platelet Aggregation Inhibition (PAI), ADP 1.6×10^-6 M, plasma concentration 6.25×10^-3 molar) was 56.6%. Moreover, in series [3] (read-out: Platelet Aggregation Inhibition (PAI), ADP 1.6×10^-6 M, plasma concentration 8.30×10^-3 molar), the inhibition at 8300 µM was found to be 60.8%. The inhibition at 4100 µM in series [3] (read-out: Platelet Aggregation Inhibition (PAI), Collagen 33.3 mcg/ml, plasma concentration 4.10×10^-3 molar) was found to be 0%. The inhibition at 8300 µM in series [3] (read-out: Platelet Aggregation Inhibition (PAI), Collagen 33.3 mcg/ml, plasma concentration 8.30×10^-3 molar) is 12.6%. The inhibition at 17000 µM in series [3] (read-out: Platelet Aggregation Inhibition (PAI), Epinephrine 1.4×10^-6 M, plasma concentration 17.0×10^-3 molar) came to 59%. Also, the “in vivo action on human platelet aggregation (in words)” value in series [4] is “only a slight in vivo action on human platelet aggregation”. For the same compound, in series [5] (4th day), the Hematocrit worked out at 42.0±1.0, the Platelet count was 253.3±10.5 per mm^3 ×10^3, the “Euglobin lysis time: Von Kaulas's test” value is 145.1 ± 9.3 min and the Activated kaolin test is given as 0.768±0.05. In series [5] (4th day), the “Activated partial thromboplastin test: APTI” value is given as 0.823±0.04, the “Howell's test” value is given as 0.873, the “Plasma prothrombine test: Quick test” value was 0.966±0.02 and the Serum prothrombin time was determined as 34.8 ± 2.6 s. In addition, in series [5] (4th day), the “Bleeding time, Duke test” value amounted to 155.0 ± 19.6 s; the Clotting time was found to be 527.5 ± 30.8 s; the “Thromboelastogram K” value is listed as 25.3±2.7 cm; the Thromboelastogram r was determined as 17.8±2.0 cm. In addition, in series [5] (7th day), the Hematocrit is 45.0±1.4, the Platelet count is given as 223.3±12.8 per mm^3 ×10^3, the “Euglobin lysis time: Von Kaulas's test” value worked out at 136.6 ± 9.0 min and the Activated kaolin test was 0.960±0.04. Moreover, in series [5] (7th day), the “Activated partial thromboplastin test: APTI” value was found to be 0.960±0.01, the “Howell's test” value turned out to be 0.793±0.07, the “Plasma prothrombine test: Quick test” value is listed as 0.986±0.02 and the Serum prothrombin time came to 33.0 ± 1.5 s. Moreover, in series [5] (7th day), the “Bleeding time, Duke test” value amounted to 112.5 ± 10.8 s; the Clotting time was found to be 520.0 ± 28.6 s; the “Thromboelastogram K” value is 19.9±1.9 cm; the Thromboelastogram r is 15.0±1.3 cm. For the same compound, in series [5] (humans), the “anticoagulant action (in words)” value is reported as “exert an anticoagulant action” and the “blood fibrinolytic activity (in words)” value is given as “increase of the blood fibrinolytic activity”. In series [5] (days not separated), the Clot retraction entry is recorded as “NEGATIVE”, the “Degradation products of fibrinogen: DPF” value is listed as “NEGATIVE”, the “Parrot's test” value is “POSITIVE IN FOUR HUMANS” and the Tourniquet test entry is on record as “NEGATIVE”. Further, the inhibition at 830 µM in series [1] (Rattus norvegicus, Platelet, read-out: Platelet Aggregation Inhibition (PAI), ADP 4.1×10^-6 M, plasma concentration 0.83×10^-3 molar, rat plasma) stood at 11.2%. Further, the inhibition at 2080 µM in series [1] (Rattus norvegicus, Platelet, read-out: Platelet Aggregation Inhibition (PAI), ADP 4.1×10^-6 M, plasma concentration 2.08×10^-3 molar, rat plasma) stood at 23.1%. In series [1] (setting [6]), the inhibition at 4150 µM came to 57.5% and the inhibition at 8300 µM is 69.8%. Besides, in series [1] (setting [7]), the inhibition at 4150 µM was 45.5% and the inhibition at 8300 µM is 94.5%.
